According to patent US7678812B2, “Aminotetralin-derived urea modulators of vanilloid VR1 receptor” (Janssen Pharmaceutica NV, priority 2002, dated 2010):
Read-outs that look alike come from different tables or passages of the source.

Experiments:
[1] = tested on: carrageenan paw-induced thermal hyperalgesia; assay: Carrageenan paw-induced thermal hyperalgesia; format: in vivo, rat; conditions: for % Recovery: at 1 mg/ml; for ED50: Rattus norvegicus, po
Experimental: Each rat was placed on a heated surface (51° C.) in order to measure the time necessary to elicit a response, and an initial (baseline) response time to a thermal stimuli was recorded for each animal. A response is defined as any shaking, licking, or tucking of the treated paw or jumping. Animals not treated with a test compound respond in approximately 20 seconds. The maximal exposure time permitted is 60 seconds to prevent tissue damage. Rats were injected with an irritant (e.g., 1% carrageenan solution in 0.9% saline) subcutaneously into the sub-plantar tissue of the left hind paw to stimulate an acute inflammatory reaction.
Two hours later, the response time of the animal to the thermal stimulus was evaluated and compared to the animal's baseline response time. This shorter response time was recorded as percent hyperalgesia (% H). A cut-off value for % H (usually 75%) was used during analysis to ensure that the animals were hyperalgesic. Animals were then dosed with test drug or vehicle.
At some time(s) later (typically 45 and 90 minutes), the response time of the animal to the thermal stimulus was again evaluated. For each time point, a percent reversal of hyperalgesia (% R) was calculated using the following formula: % R=(Drug Latency−Carrageenan latency)/(Baseline latency−Carrageenan latency). ED50 values were calculated from % R obtained at several drug doses.

hVR1 receptors [2] = molecular target: T1, hVR1 receptors (Homo sapiens, UniProt Q8NER1); assay: [3H] RTX binding assay, human VR1; parameters: expressed in transfected cells; host or cells: HEK293 (membrane preparation); conditions: inhibition of [3H] RTX binding, membranes of HEK293 cells transfected with human VR1
Experimental: Compounds of the present invention were tested for their ability to inhibit the binding of [^3H] RTX to hVR1 receptors in a [^3H] RTX binding assay as previously described (Zhang, Sui-Po. Improved ligand binding assays for vanilloid receptors. PCT Int. Appl. (2002), 29 pp. CODEN: PIXXD2 WO 0233411 A1 20020425 AN 2002:315209; Grant, Elfrida R.; Dubin, Adrienne E.; Zhang, Sui-Po; Zivin, Robert A.; Zhong, Zhong Simultaneous intracellular calcium and sodium flux imaging in human vanilloid receptor 1 (VR1)-transfected human embryonic kidney cells: a method to resolve ionic dependence of VR1-mediated cell death. Journal of Pharmacology and Experimental Therapeutics (2002), 300(1), 9-17.)
HEK293 cells were transfected with human VR1 vanilloid receptors and washed with Hank's Balanced Salt Solution, dissociated with cell dissociation buffer (Sigma), and then centrifuged at 1000×g for 5 min. Cell pellets were homogenized in cold 20 mM HEPES buffer, pH 7.4, containing 5.8 mM NaCl, 320 mM sucrose, 2 mM MgCl2, 0.75 CaCl2 and 5 mM KCl and centrifuged at 1000×g for 15 min. The resultant supernate was then centrifuged at 40000×g for 15 min. The pelleted membranes were kept in an −80° C. freezer.
Approximately 120 μg protein/ml from membranes were incubated with indicated concentrations of [^3H] RTX in 0.5 ml of the HEPES buffer (pH 7.4) containing 0.25 mg/mL fatty acid-free bovine serum albumin at 37° C. for 60 min. The reaction mixture was then cooled to 4° C., 0.1 mg α1-acid glycoprotein added to each sample and incubated at 4° C. for 15 min. The samples were centrifuged at 18500×g for 15 min. The tip of the microcentrifuge tube containing the pellet was cut off. Bound radioactivity was quantified by scintillation counting. Non-specific binding was tested in the presence of 200 nM unlabeled RTX.

Rat VR1 [3] = molecular target: T2, Rat VR1 (Rattus norvegicus, UniProt O35433); assay: [3H]-RTX binding assay using rat tissue (spinal cord); parameters: Rat spinal cord was homogenized twice with a Polytron; from tissue; host or cells: rat spinal cord membranes; conditions: rat spinal cord membranes
Experimental: Alternatively, a binding assay using rat tissue was used. Rat spinal cord was homogenized twice with a Polytron and centrifuged at 3000 rpm for 10 min in HEPES buffer containing 20 mM HEPES, pH 7.4, NaCl 5.8 mM, sucrose 320 mM, MgCl2 2 mM, CaCl2 0.75 mM and KCl 5 mM. The supernatant was then centrifuged at 18,000 rpm for 20 min. The pellet was saved in a tube and 10 ml assay buffer was added into the tube. The pellet and buffer were mixed with a Polytron. The assay contained 120 μg/ml membrane protein and 0.3-0.6 nM [^3H]-RTX (NEN, Boston) in a total volume of 0.5 ml HEPES buffer. Following-incubation for 60 min at 37 C, the samples were cooled down on ice, and 100 mg of α-acid glycoprotein were added into the samples. After centrifugation at 13,000 rpm for 15 min, the supernatant was aspirated and the tips of tubes were cut off and placed into 6 ml vials. Data were calculated according to the equation: % inhibition=(total binding−binding)*100/(total binding−non specific binding). Ki value values were calculated using a Prism program.

[4] = molecular target: T3, VR1 expressed endogenously on small rat dorsal root ganglion (DRG) neurons (Rattus norvegicus, UniProt O35433); assay: Electrophysiologic functional assay using dissociated rat DRG cells (whole cell patch clamp); format: cell-based; conditions: for inhibition of the response to 1 uM capsaicin: capsaicin-induced currents in rat DRG neurons; for % of the initial CAP response in presence of 1 uM CAP / % of the initial CAP response in presence of 10 uM CAP: initial response to 0.3 uM capsaicin
T3 construct: VR1 expressed endogenously on small rat dorsal root ganglion (DRG) neurons; endogenous in cells; host or cells: dissociated DRG neurons from normal rats
Experimental: Compounds 42, 95, 101, 105 and 106 were tested for their activity on VR1 expressed endogenously on small rat dorsal root ganglion (DRG) neurons. DRG neurons from normal rats were dissociated (see methods in Chaplan et al., 2003) and whole cell currents mediated by VR1 were recorded using the whole cell patch clamp technique. […] This was followed by application of 10 μM CAP in the presence of compound. […] The ability of 1 and 10 μM CAP to cause an increased current after exposure to a compound of the invention was compared to controls.

hVR1 receptors [5] = molecular target: T1, hVR1 receptors; assay: Broadly stimulated recombinant human VR1 functional assay (Ca2+ influx, FLIPR); format: cell-based; parameters: expressed in transfected cells; host or cells: HEK293
Rat VR1 [6] = molecular target: T2, Rat VR1; assay: Broadly stimulated recombinant rat VR1 functional assay (Ca2+ influx, FLIPR); format: cell-based; parameters: expressed in transfected cells; conditions: rat recombinant VR1, increase in intracellular Ca2+; read-out: EC50 for PMA
From the text: When nociceptors are exposed to tissue damaging stimuli, VR1 receptors are activated by a plethora of stimuli. In an effort to identify potent and efficacious antagonists at human and rat VR1 that were active under conditions simulating aspects of in vivo inflammation functional assays were developed using FLIPR to determine antagonist activity against endogenous activators and stimuli likely to be present in inflammation. Cell lines were constructed that stably expressed recombinant rat VR1 (rVR1/HEK293). Cells were exposed to various stimuli at their EC80, with the exception of the low pH and DTT stimuli.
Phoshorylation by PKC. […] Cells were challenged with 300 nM PMA (˜EC80) after 3 min in the indicated antagonist.
Anandamide. Anandamide is a brain-derived cannabinoid ligand that acts as a near full agonist at VR1 at low μM concentrations [Smart, 2000 #507].
Reactive oxygen species: Disturbances in the regulatory activities of free radicals may play a role in inflammation [Winrow, 1993]. Reactive oxygen species (ROS) such as H2O2 are formed in inflamed joints.
Reducing agents: The reducing agent DTT also directly activates VR1 [Vyklicky, 2002]. Cells were challenged with 5-10 mM DTT to stimulate VR1 after 3 min incubation in compound.
Since many of our animal models were in rat, we cloned the rat VR1 and expressed it stably in HEK293 cells.

[7] = reversal of hyperalgesia, read-out: CgHP ED50
[8] = 1.5 h, p.o., at 90 min, read-out: ED50

T2 sequence (O35433 whole entry): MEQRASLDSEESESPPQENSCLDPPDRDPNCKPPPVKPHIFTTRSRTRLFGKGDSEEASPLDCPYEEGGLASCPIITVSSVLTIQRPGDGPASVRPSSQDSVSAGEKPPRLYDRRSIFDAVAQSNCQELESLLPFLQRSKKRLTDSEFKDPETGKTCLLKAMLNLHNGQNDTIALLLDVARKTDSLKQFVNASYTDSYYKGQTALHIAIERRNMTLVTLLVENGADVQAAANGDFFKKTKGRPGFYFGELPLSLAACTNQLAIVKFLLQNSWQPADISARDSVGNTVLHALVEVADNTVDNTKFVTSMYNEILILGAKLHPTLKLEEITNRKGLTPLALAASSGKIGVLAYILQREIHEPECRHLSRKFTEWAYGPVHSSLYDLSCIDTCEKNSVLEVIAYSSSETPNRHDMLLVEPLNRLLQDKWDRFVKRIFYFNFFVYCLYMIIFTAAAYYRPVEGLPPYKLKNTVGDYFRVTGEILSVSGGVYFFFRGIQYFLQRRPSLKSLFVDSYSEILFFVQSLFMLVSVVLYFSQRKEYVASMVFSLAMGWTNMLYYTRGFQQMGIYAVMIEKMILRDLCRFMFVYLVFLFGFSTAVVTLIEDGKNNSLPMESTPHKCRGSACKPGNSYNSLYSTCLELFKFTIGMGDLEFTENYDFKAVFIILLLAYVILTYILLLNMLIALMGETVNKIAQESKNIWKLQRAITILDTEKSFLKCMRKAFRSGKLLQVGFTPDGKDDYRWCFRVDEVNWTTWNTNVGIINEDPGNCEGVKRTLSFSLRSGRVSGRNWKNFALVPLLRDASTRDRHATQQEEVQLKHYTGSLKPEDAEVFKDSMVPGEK
T3 sequence (O35433 whole entry): as above
T1 sequence (Q8NER1 whole entry): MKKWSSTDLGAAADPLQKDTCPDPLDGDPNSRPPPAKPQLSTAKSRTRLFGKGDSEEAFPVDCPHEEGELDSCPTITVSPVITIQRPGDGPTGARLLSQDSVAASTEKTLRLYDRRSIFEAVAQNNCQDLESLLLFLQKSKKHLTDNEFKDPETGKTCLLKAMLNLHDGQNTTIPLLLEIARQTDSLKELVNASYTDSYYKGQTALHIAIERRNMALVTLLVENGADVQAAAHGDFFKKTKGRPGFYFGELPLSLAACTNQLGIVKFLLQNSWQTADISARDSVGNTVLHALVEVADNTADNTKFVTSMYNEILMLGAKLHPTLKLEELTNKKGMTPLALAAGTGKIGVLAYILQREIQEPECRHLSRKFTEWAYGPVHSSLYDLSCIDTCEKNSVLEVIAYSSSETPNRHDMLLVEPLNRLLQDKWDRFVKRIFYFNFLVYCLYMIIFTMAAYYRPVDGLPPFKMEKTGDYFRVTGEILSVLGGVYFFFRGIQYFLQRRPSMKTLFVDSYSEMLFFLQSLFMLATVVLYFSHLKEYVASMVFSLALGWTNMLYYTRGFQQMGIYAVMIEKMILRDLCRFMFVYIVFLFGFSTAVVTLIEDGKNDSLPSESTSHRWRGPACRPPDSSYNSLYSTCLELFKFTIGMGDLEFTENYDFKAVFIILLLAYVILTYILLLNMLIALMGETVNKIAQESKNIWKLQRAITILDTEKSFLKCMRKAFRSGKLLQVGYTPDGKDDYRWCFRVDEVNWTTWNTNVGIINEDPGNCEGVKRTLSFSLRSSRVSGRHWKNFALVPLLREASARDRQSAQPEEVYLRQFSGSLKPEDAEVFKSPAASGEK

Ki (hVR1 receptors [2]) | Ki (Rat VR1 [3]) | Compound | further results
0.000531 µM | 0.185 µM | O=C(Nc1cccc2cnccc12)NC1CCc2cc(F)ccc2C1Cc1cccc(C(F)(F)F)c1 (racemic) [Compound 110] | % Recovery ([1]; at 90 min): 64.3%
0.0155 µM | 1.27 µM | O=C(Nc1cccc2cnccc12)N[C@@H]1CCc2cc(F)ccc2[C@@H]1Cc1ccoc1 (relative stereo) [Compound 88] | –
– | 0.259 µM | COc1ccc2c(c1)CC[C@@H](NC(=O)Nc1cccc3cnccc13)[C@H]2Cc1ccc(F)cc1F (relative stereo) [Compound 90] | –
– | 1.48 µM | COc1ccc2c(c1)CC[C@@H](NC(=O)Nc1cccc3cnccc13)[C@@H]2Cc1ccc(F)cc1F (relative stereo) [Compound 91] | –
0.00525 µM | 0.781 µM | Cc1cc2c(NC(=O)NC3CCc4cc(F)ccc4C3Cc3ccccc3)cccc2cn1 (single isomer, unassigned) [Compound 100] | –
0.00112 µM | 0.0531 µM | Cc1cc2c(NC(=O)NC3CCc4cc(F)ccc4C3Cc3ccccc3)cccc2cn1 (single isomer, unassigned) [Compound 101] | inhibition of the response to 1 uM capsaicin [4]: dose dependent; % of the initial CAP response in presence of 1 uM CAP ([4]; compound concentration 0.03 uM): 14%; % of the initial CAP response in presence of 10 uM CAP ([4]; compound concentration 0.03 uM): 54%; % of the initial CAP response in presence of 1 uM CAP ([4]; compound concentration 0.1 uM): 0%; % of the initial CAP response in presence of 10 uM CAP ([4]; compound concentration 0.1 uM): 0%
0.00216 µM | 0.169 µM | O=C(Nc1cccc2cnccc12)NC1CCc2cc(F)ccc2C1Cc1cccc(C(F)(F)F)c1 (single isomer, unassigned) [Compound 118] | –
0.0005 µM | 0.152 µM | O=C(Nc1cccc2cnccc12)NC1CCc2cc(F)ccc2C1Cc1cccc(C(F)(F)F)c1 (single isomer, unassigned) [Compound 119] | –
0.0957 µM | 10 µM | O=C(Nc1cccc2c[n+]([O-])ccc12)NC1CCc2cc(F)ccc2C1Cc1cccc(C(F)(F)F)c1 (single isomer, unassigned) [Compound 120] | % Recovery ([1]; at 90 min): 83.0%
0.00575 µM | 0.0885 µM | O=C(Nc1cccc2c[n+]([O-])ccc12)NC1CCc2cc(F)ccc2C1Cc1cccc(C(F)(F)F)c1 (single isomer, unassigned) [Compound 121] | % Recovery ([1]; at 90 min): 80.1%
– | – | Oc1cc2c(cc1O)CN(C(=S)NCCc1ccc(Cl)cc1)CCC2 [Capsazepine, capsazepine, reference compound] | IC50 (hVR1 receptors [5]; human recombinant receptor, FIG. 1, read-out: potency to inhibit Ca2+ activity induced by the panel of stimuli): 0.1 to 0.3 µM
– | – | COCOc1ccc(CNC(=S)NC2CCc3ccccc3C2Cc2cccnc2)cc1OC (stereo not shown) [Compound 4] | ED50 [1, 7]: 0.804 mg/kg
– | – | COc1ccc2c(c1)CCC(NC(=S)NCCc1ccc(Cl)cc1)C2Cc1ccccc1 (stereo not shown) [Compound 17] | ED50 [1, 7]: 20 mg/kg
0.00194 µM | – | O=C(Nc1cccc2cnccc12)NC1CCc2c(Cl)cccc2C1Cc1ccccc1 (stereo not shown) [Compound 42] | % of the initial CAP response in presence of 1 uM CAP ([4]; compound concentration 0.3 uM): 0%
0.0154 µM | – | C=CCC1c2ccccc2CCC1NC(=O)Nc1cccc2cnccc12 (stereo not shown) [Compound 57] | ED50 [1, 7]: 0.354 mg/kg
– | 1.08 µM | COc1ccc2c(c1)CCC(NC(=O)Nc1cccc3cnccc13)C2Cc1ccsc1 (stereo not shown) [Compound 89] | –
0.0017 µM | 0.217 µM | O=C(Nc1cccc2cnccc12)NC1CCc2cc(Cl)ccc2C1Cc1ccccc1 (stereo not shown) [Compound 95] | inhibition of the response to 1 uM capsaicin [4]: dose dependent; % of the initial CAP response in presence of 1 uM CAP ([4]; compound concentration 0.03 uM): 78%; % of the initial CAP response in presence of 10 uM CAP ([4]; compound concentration 0.03 uM): 1073%
0.0086 µM | 2.84 µM | O=C(Nc1cccc2c[n+]([O-])ccc12)NC1CCc2cc(Cl)ccc2C1Cc1ccccc1 (stereo not shown) [Compound 106] | ED50 [1, 8]: 0.027 mg/kg; % of the initial CAP response in presence of 1 uM CAP ([4]; compound concentration 1 uM): 2%; % of the initial CAP response in presence of 10 uM CAP ([4]; compound concentration 1 uM): 11%
0.00093 µM | 0.0287 µM | O=C(Nc1cccc2cnccc12)NC1CCc2cc(F)ccc2C1Cc1ccc(C(F)(F)F)cc1 (stereo not shown) [Compound 107] | ED50 [1, 8]: 0.92 mg/kg
0.073 µM | 1.7 µM | O=C(Nc1cccc2cnccc12)NC1CCc2ccccc2C12Cc1ccccc1C2 (stereo not shown) [Compound 122, Spiro{indan-2,1′-(1′,2′,3′,4′-tetrahydronaphthalene)-2′-yl}-3-isoquinolin-5-yl-urea] | –
– | – | OO [Compound H2O2, H2O2, reference compound] | EC80 for H2O2-induced Ca2+ flux (hVR1 receptors [5]; VR1/HEK cells, species not stated): 0.015 % H2O2
– | – | CCCCCCCCCCCCCC(=O)O[C@@H]1[C@@H](C)[C@@]2(O)[C@@H](C=C(CO)C[C@]3(O)C(=O)C(C)=C[C@@H]23)[C@@H]2C(C)(C)[C@]12OC(C)=O [PMA, phorbol-12-myristate-13-acetate, reference compound] | EC50 (hVR1 receptors [5]; human recombinant VR1, increase in intracellular Ca2+, read-out: EC50 for PMA): 0.09 µM; EC50 (Rat VR1 [6]): 0.09 µM
